Results from publication PMC2779801, “Comparative biochemical analysis of HIV-1 subtype B and C integrase enzymes” (Retrovirology, 2009).
Read-outs that look alike come from different tables or passages of the source.

Assays:
[1] = target: T1, HIV-1 subtype B integrase (Human immunodeficiency virus type 1, UniProt P12497); assay: Disintegration assay; assay type: biochemical; settings: increasing inhibitor concentration
Source text: Oligonucleotides were purchased from Invitrogen and then PAGE purified.
ATP (Perkin Elmer). Unincorporated nucleotides were discarded utilizing 'NucAway columns' (Ambion).

[2] = target: T2, HIV-1 subtype C integrase (Human immunodeficiency virus type 1, UniProt Q9QN97, C991S/F896H); settings: for Inhibition of disintegration: increasing inhibitor concentration
Method: (§1) Oligonucleotide-based assays were performed to measure integrase enzymatic activities. All oligonucleotide probes were gel purified and phenol-chloroform extracted. INT1 oligonucleotide was radiolabeled using the T4 Polynucleotide Kinase kit (Ambion) with [γ-^32P] ATP (Perkin Elmer). Unincorporated nucleotides were discarded utilizing 'NucAway columns' (Ambion). A double stranded oligonucleotide substrate was obtained by mixing equal concentrations of INT1 and INT2, heating to 95°C and stepwise cooling to 37°C in 100 mM NaCl. The oligonucleotides T35 and SK70 were annealed to form a second double stranded oligonucleotide. INT1/2 mimicked the HIV-1 U5 long terminal repeat (LTR) and acted as a substrate for 3' processing. T35/SK70 acted as a site for integration of the processed INT1/2 fragment and mimicked host DNA.
Concentrations of enzymes used in the following reactions were optimized in a series of preliminary experiments. Integrase reactions were performed in a buffer containing 20 mM Hepes (pH 7.5), 30 mM NaCl, 1 mM dithiothreitol, 125 μM ZnCl2 and 0.125 pmol dsDNA substrate (INT1/2) in a final volume of 10 μl. Recombinant integrase (3.1 μM), and varying concentrations of integrase inhibitors or water/DMSO as control, were mixed and preincubated at 37°C for 15 min. 3' processing reactions were initiated by addition of 7.5 mM of MnCl2 and incubated at 37°C for 3 min unless otherwise indicated. For strand transfer reactions, 1.25 pmol of dsDNA template (T35/SK70) were added and the reaction mixture was further incubated at 37°C for 1 hour unless otherwise indicated. Reactions were stopped by adding 5 times the volume of gel loading dye (formamide containing 1% SDS, 0.25% bromophenol blue, and 0.25% xylene cyanol) and heating to 95°C. Reaction products were separated on 6% acrylamide, 7 M urea sequencing gels. Gels were dried and exposed utilizing phosphorimager screens (GE Healthcare) and scanned in a Molecular Dynamics Typhoon Phosphorimager (GE Healthcare). Product analysis and quantification were conducted using ImageQuant and GraphPad Prism 4.0 software. Quantification of standard error of the mean (SEM) was performed with GraphPad Prism 4.0 software.

[3] = system: Subtype B virus 5331; assay: Cell culture phenotypic drug susceptibility assay (p24 antigen) in cord blood mononuclear cells; assay type: cell-based, HIV-1; settings: read-out: EC50 Values
Method: (§2) Recombinant viruses (subtype B) (pNL4-3 and IIIb) and viruses obtained from either our primary HIV infection cohort or from long-term infected patients (subtype B and C) were amplified as previously described. Drug susceptibility was measured in cell culture-based phenotypic assays using cord blood mononuclear cells to determine the extent of […] HIV replication blockage by integrase inhibitors.

[4] = system: Subtype B virus IIIb; assay: as above; assay type: cell-based, HIV-1; settings: read-out: EC50 Values
Method: as §2

[5] = system: Subtype B virus pNL4-3; assay: as above; assay type: cell-based, HIV-1; settings: read-out: EC50 Values
Method: as §2

[6] = system: Subtype C virus 4742; assay: as above; assay type: cell-based, HIV-1
Method: as §2

[7] = system: Subtype C virus 96USNG31; assay: as above; assay type: cell-based, HIV-1
Method: as §2

[8] = system: Subtype C virus BG-05; assay: as above; assay type: cell-based, HIV-1
Method: as §2

[9] = system: Subtype C virus HB-1; assay: as above; assay type: cell-based, HIV-1
Method: as §2

[10] = target: T1, HIV-1 subtype B integrase; assay type: biochemical; settings: Mn2+-based assay, 95% confidence interval in brackets
Method: as §1
Concentrations of enzymes used in the following reactions were optimized in a series of preliminary experiments. Integrase reactions were performed in a buffer containing 20 mM Hepes (pH 7.5), 30 mM NaCl, 1 mM dithiothreitol, 125 μM ZnCl2 and 0.125 pmol dsDNA substrate (INT1/2) in a final volume of 10 μl. […] Product analysis and quantification were conducted using ImageQuant and GraphPad Prism 4.0 software. Quantification of standard error of the mean (SEM) was performed with GraphPad Prism 4.0 software.

[11] = target: T1, HIV-1 subtype B integrase; assay type: biochemical; settings: Mg2+-based microtiter plate assay, 95% confidence interval in brackets, read-out: Strand Transfer IC50
Method: A microtiter plate assay was utilized to evaluate MgCl2-mediated strand transfer as previously described [24, 31]. Briefly, biotinylated oligonucleotides mimicking LTR donor DNA (5'-biotin-[sequence] and 5'-[sequence]) were immobilized onto black-colour Reacti-Bind Streptavidin-coated plates (ThermoFisher). 313 nM recombinant enzyme was bound to donor DNA on the plates in the presence of 25 mM MnCl2 and the plates were then washed to remove excess unbound enzyme. […] Covalently linked target DNA was detected through use of an anti-FITC antibody conjugated to alkaline phosphatase (Roche) and a chemiluminescence substrate (CSPD Sapphire II, Applied Biosystems). Integrase inhibitors were added at increasing concentrations shortly before the addition of target DNA. Strand transfer was evaluated by chemiluminescence.

[12] = target: T2, HIV-1 subtype C integrase; settings: read-out: Strand Transfer IC50, Mg2+-based microtiter plate assay, 95% confidence interval in brackets
Method: A microtiter plate assay was utilized to evaluate MgCl2-mediated strand transfer as previously described. Briefly, biotinylated oligonucleotides mimicking LTR donor DNA (5'-biotin-[…] and 5'-[…]) were immobilized onto black-colour Reacti-Bind Streptavidin-coated plates (ThermoFisher). 313 nM recombinant enzyme was bound to donor DNA on the plates in the presence of 25 mM […] and the plates were then washed to remove excess unbound enzyme. […] Covalently linked target DNA was detected through use of an anti-FITC antibody conjugated to alkaline phosphatase (Roche) and a chemiluminescence substrate (CSPD Sapphire II, Applied Biosystems). Integrase inhibitors were added at increasing concentrations shortly before the addition of target DNA. Strand transfer was evaluated by chemiluminescence.

[13] = system: Subtype B virus 5326; assay: Cell culture phenotypic drug susceptibility assay (p24 antigen) in cord blood mononuclear cells; assay type: cell-based, HIV-1; settings: read-out: EC50 Values
Method: as §2

[14] = system: Subtype B virus BK 132; assay: as above; assay type: cell-based, HIV-1; settings: read-out: EC50 Values
Method: as §2

[15] = system: Subtype C virus Mole 03; assay: as above; assay type: cell-based, HIV-1
Method: as §2

[16] = Human immunodeficiency virus 1, read-out: EC50 Values

`COc1cc2c(cc1Cc1cccc(Cl)c1F)c(=O)c(C(=O)O)cn2[C@H](CO)C(C)C` [EVG, elvitegravir] was tested, and the Inhibition of disintegration [1] was “neither RAL nor EVG had much effect”, the Inhibition of disintegration [2] was “neither RAL nor EVG had much effect” and the EC50 [3] was 0.1 ± 0.07 nM. The EC50 ([4]; IIIB) was 1.8 ± 0.6 nM, the EC50 [5] was 0.9 ± 0.3 nM and the EC50 [6, 16] was 2.2 ± 0.2 nM. The EC50 [7, 16] was 0.8 ± 0.6 nM, the EC50 [8, 16] was 0.8 ± 0.04 nM and the EC50 [9, 16] was 0.1 ± 0.01 nM.

For `CCN1C[C@H](C)n2c(c(O)c3c(=O)n(Cc4ccc(F)c(Cl)c4)nc(C(=O)NC)c32)C1=O` [MK-2048], the IC50 ([10]; read-out: 3' Processing IC50) was 580 nM, the IC50 ([10]; read-out: Strand Transfer IC50) was 75 nM and the IC50 [11] was 4.7 nM. For the same compound, the IC50 [12] was 2.3 nM, the Inhibition of disintegration [1] was “inhibited by high concentrations of MK-2048” and the Inhibition of disintegration [2] was “inhibited by high concentrations of MK-2048”. The IC50 ([2]; read-out: 3' Processing IC50, Mn2+-based assay, 95% confidence interval in brackets) was 190 nM, the IC50 ([2]; read-out: Strand Transfer IC50, Mn2+-based assay, 95% confidence interval in brackets) was 80 nM and the EC50 ([13]; Subtype B virus 5326, cord blood mononuclear cells, p24 antigen) was 7.2 ± 2.1 nM. The EC50 ([3]; Subtype B virus 5331, cord blood mononuclear cells, p24 antigen) was 1 ± 0.2 nM, the EC50 ([14]; Subtype B virus BK 132, cord blood mononuclear cells, p24 antigen) was 14.8 ± 3.2 nM and the EC50 ([4]; Subtype B virus IIIb, cord blood mononuclear cells, p24 antigen) was 0.3 ± 0.1 nM. For the same compound, the EC50 ([5]; Subtype B virus pNL4-3, cord blood mononuclear cells, p24 antigen) was 2.7 ± 0.9 nM, the EC50 ([6]; Subtype C virus 4742, cord blood mononuclear cells, p24 antigen, read-out: EC50 Values) was 3.3 ± 2 nM and the EC50 ([7]; Subtype C virus 96USNG31, cord blood mononuclear cells, p24 antigen, read-out: EC50 Values) was 1.5 ± 0.1 nM. The EC50 ([8]; Subtype C virus BG-05, cord blood mononuclear cells, p24 antigen, read-out: EC50 Values) was 2.2 ± 0.7 nM, the EC50 ([9]; Subtype C virus HB-1, cord blood mononuclear cells, p24 antigen, read-out: EC50 Values) was 0.7 ± 0.5 nM and the EC50 ([15]; Subtype C virus Mole 03, cord blood mononuclear cells, p24 antigen, read-out: EC50 Values) was 1.1 ± 0.1 nM.

With `Cc1nnc(C(=O)NC(C)(C)c2nc(C(=O)NCc3ccc(F)cc3)c(O)c(=O)n2C)o1` [RAL, raltegravir] the Inhibition of disintegration [1] was “neither RAL nor EVG had much effect”, the Inhibition of disintegration [2] was “neither RAL nor EVG had much effect” and the EC50 [13] was 24.3 ± 2.5 nM. For the same compound, the EC50 [3] was 5.6 ± 2.2 nM, the EC50 [14] was 30.1 ± 5.4 nM and the EC50 ([4]; IIIB) was 1.2 ± 0.5 nM. It also gave an EC50 [5] of 8.2 ± 1.3 nM, an EC50 [6, 16] of 20.6 ± 9 nM and an EC50 [7, 16] of 8.7 ± 0.7 nM. For the same compound, the EC50 [8, 16] was 6.7 ± 0.9 nM, the EC50 [9, 16] was 1.5 ± 0.4 nM and the EC50 [15, 16] was 4.6 ± 0.2 nM.
